# Assay results taken from patent publication US12552772B2, “2-pyrazole anilines and related analogs for inhibiting YAP/TAZ-TEAD” (KATHOLIEKE UNIVERSITEIT LEUVEN, priority 2021, dated 2026).
# System: YAP/TAZ-TEAD transcription
# Assay: Reporter gene assay for measuring the inhibition of YAP/TAZ-TEAD transcription (TEAD-responsive element luciferase reporter in Hek293T cells)
# Type: cell-based
# Conditions: Homo sapiens, HEK-293T, 24 hours incubation
# Protocol: Hek293T cells are cultured in DMEM supplemented with 10% fetal bovine serum, Sodium pyruvate, Sodium bicarbonate, L-glutamine. The cells are harvested and transiently transfected with TEAD-responsive element luciferase reporter. Transfected cells are plated in 384-wells plate containing pre-diluted compounds. After 24 hours incubation at 37° C./5% CO2, assay plates were cooled down to RT and levelled to an equal volume per well, prior to the addition of 25 uL luciferase substrate SteadyLite (Perkin Elmer)/well. The plate was shaken for 10 min at 600 rpm, centrifuged for 1 min at 500 rpm and measured with an Envision reader (PerkinElmer). The amount of relative light units produced by the TEAD reporter is used to calculated percent of inhibition.
# The percent of reporter inhibition was calculated in the presence of a positive control inhibitor (100% inhibition) versus a condition with the presence of the vehicle basal activity of the reporter (0% inhibition). The ability of a test compound to inhibit this activity was determined as: Percentage inhibition=[1−((RLU determined in the presence of vehicle−RLU determined for sample with test compound present) divided by (RLU determined in the presence of vehicle−RLU determined for sample with positive control inhibitor))]*100
# The activities of the example compounds tested are depicted in the table below. The activity ranges A, B and C refer to EC50 values in the reporter gene assay as described as follows: “A”: EC50<1 μM; “B”: 1 μM s EC50≤20 μM and “C”: EC50>20 μM, NT=not tested.
row,SMILES,EC50
1,"C=CC(=O)NCc1cnc(-c2ccc(C(F)(F)F)cc2)cc1-c1ccn(C(F)F)n1 [compound 209, N-((4-(1-(difluoromethyl)-1H-pyrazol-3-yl)-6-(4-(trifluoromethyl)phenyl)pyridin-3-yl)methyl)acrylamide]",< 1 µM
2,"C=CC(=O)Nc1ccc(-c2cccc(-c3ccn(Cc4ccccc4)n3)c2)cn1 [compound 010, N-(5-(3-(1-benzyl-1H-pyrazol-3-yl)phenyl)pyridin-2-yl)acrylamide]",1 to 20 µM
3,"C=CC(=O)Nc1cc(-c2cccc(-c3ccn(Cc4ccccc4)n3)c2)ccn1 [compound 009, N-(4-(3-(1-benzyl-1H-pyrazol-3-yl)phenyl)pyridin-2-yl)acrylamide]",< 1 µM
4,"C=CC(=O)NCc1ccc(-c2ccc(F)cc2)cc1-c1ccn(CCO)n1 [compound 151, N-((4′-fluoro-3-(1-(2-hydroxyethyl)-1H-pyrazol-3-yl)-[1,1′-biphenyl]-4-yl)methyl)acrylamide]",< 1 µM
5,"CNS(=O)(=O)CCNc1ccc(-c2cccc(OC)c2)cc1-c1ccn(Cc2cccnc2)n1 [compound 090, 2-((3′-methoxy-3-(1-(pyridin-3-ylmethyl)-1H-pyrazol-3-yl)-[1,1′-biphenyl]-4-yl)amino)-N-methylethane-1-sulfonamide]",< 1 µM
6,"O=C(O)CCNc1ccc(-c2ccccc2)cc1-c1ccn(Cc2cccnc2)n1 [compound 059, 3-((3-(1-(pyridin-3-ylmethyl)-1H-pyrazol-3-yl)-[1,1′-biphenyl]-4-yl)amino)propanoic acid]",< 1 µM
7,"Cn1ccc(Cn2ccc(-c3cccc(-c4ccccc4)c3)n2)cc1=O [compound 024, 4-((3-([1,1′-biphenyl]-3-yl)-1H-pyrazol-1-yl)methyl)-1-methylpyridin-2(1H)-one]",1 to 20 µM
8,"C=CC(=O)NCc1cnc(-c2cccc(C#N)c2)cc1-c1ccn(C(F)F)n1 [compound 220, N-((6-(3-cyanophenyl)-4-(1-(difluoromethyl)-1H-pyrazol-3-yl)pyridin-3-yl)methyl)acrylamide]",< 1 µM
9,"C=CC(=O)NCc1cnc(-c2ccc(F)cc2)cc1-n1cccn1 [Cpd. No. 239, N-((6-(4-fluorophenyl)-4-(1H-pyrazol-1-yl)pyridin-3-yl)methyl)acrylamide]",< 1 µM
10,"C=CC(=O)N1CCC(c2cc(-c3ccc(F)cc3)nc(-c3ccn(C(F)F)n3)c2)C1 (centres unmarked) [Cpd. No. 264, 1-(3-(2-(1-(difluoromethyl)-1H-pyrazol-3-yl)-6-(4-fluorophenyl)pyridin-4-yl)pyrrolidin-1-yl)prop-2-en-1-one]",< 1 µM
11,"CNS(=O)(=O)CCNc1ccc(-c2ccn(C)n2)cc1-c1ccn(Cc2cccnc2)n1 [compound 096, N-methyl-2-((4-(1-methyl-1H-pyrazol-3-yl)-2-(1-(pyridin-3-ylmethyl)-1H-pyrazol-3-yl)phenyl)amino)ethane-1-sulfonamide]",1 to 20 µM
12,"c1ccc(-c2cc(NC3CCCOC3)cc(-c3ccn(Cc4cccnc4)n3)c2)cc1 (centres unmarked) [compound 071, N-(5-(1-(pyridin-3-ylmethyl)-1H-pyrazol-3-yl)-[1,1′-biphenyl]-3-yl)tetrahydro-2H-pyran-3-amine]",1 to 20 µM
13,"CCC(=O)NCc1cc(-c2ccc(F)cc2)cc(-c2ccn(C(F)F)n2)n1 [compound 226, N-((6-(1-(difluoromethyl)-1H-pyrazol-3-yl)-4-(4-fluorophenyl)pyridin-2-yl)methyl)propionamide]",< 1 µM
14,"CNC(=O)CNc1ccc(-c2ccccc2)cc1-c1ccn(Cc2cccnc2)n1 [compound 074, N-methyl-2-((3-(1-(pyridin-3-ylmethyl)-1H-pyrazol-3-yl)-[1,1′-biphenyl]-4-yl)amino)acetamide]",1 to 20 µM
15,"C=CC(=O)NCc1ccc(-c2ccc(F)cc2)nc1-c1nnn(C(F)F)n1 [compound 199, N-((2-(2-(difluoromethyl)-2H-tetrazol-5-yl)-6-(4-fluorophenyl)pyridin-3-yl)methyl)acrylamide]",< 1 µM
16,"c1ccc(-c2cccc(-c3ccn(CCN4CCOCC4)n3)c2)cc1 [compound 025, 4-(2-(3-([1,1′-biphenyl]-3-yl)-1H-pyrazol-1-yl)ethyl)morpholine]",1 to 20 µM
17,"C=CC(=O)NCc1ccc(-c2ccccc2)cc1-c1ccn(Cc2cccnc2)n1 [compound 136, N-((3-(1-(pyridin-3-ylmethyl)-1H-pyrazol-3-yl)-[1,1′-biphenyl]-4-yl)methyl)acrylamide]",< 1 µM
18,"Cn1ccc(-c2ccc(NCCS(=O)(=O)O)c(-c3ccn(Cc4cccnc4)n3)c2)n1 [compound 109, 2-((4-(1-methyl-1H-pyrazol-3-yl)-2-(1-(pyridin-3-ylmethyl)-1H-pyrazol-3-yl)phenyl)amino)ethane-1-sulfonic acid]",> 20 µM

row,SMILES,EC50
1,"CCC(=O)NCc1cnc(-c2cccc(Cl)c2)cc1-c1ccn(C(F)F)n1 [compound 214, N-((6-(3-chlorophenyl)-4-(1-(difluoromethyl)-1H-pyrazol-3-yl)pyridin-3-yl)methyl)propionamide]",> 20 µM
2,"CNS(=O)(=O)CCNc1ccc(-c2cc(F)ccc2F)cc1-c1ccn(C)n1 [compound 123, 2-((2′,5′-difluoro-3-(1-methyl-1H-pyrazol-3-yl)-[1,1′-biphenyl]-4-yl)amino)-N-methylethane-1-sulfonamide]",< 1 µM
3,"CNS(=O)(=O)CCNc1ccc(-c2cc(F)cc(F)c2)cc1-c1ccn(Cc2cccnc2)n1 [compound 101, 2-((3′,5′-difluoro-3-(1-(pyridin-3-ylmethyl)-1H-pyrazol-3-yl)-[1,1′-biphenyl]-4-yl)amino)-N-methylethane-1-sulfonamide]",< 1 µM
4,"c1ccc(Nc2cccc(-c3ccn(Cc4ccccn4)n3)c2)cc1 [compound 044, N-phenyl-3-(1-(pyridin-2-ylmethyl)-1H-pyrazol-3-yl) aniline]",1 to 20 µM
5,"CCC(=O)NCc1cnc(-c2ccc(F)cc2)cc1-n1nnc(C)n1 [compound 251, N-((6-(4-fluorophenyl)-4-(5-methyl-2H-tetrazol-2-yl)pyridin-3-yl)methyl)propionamide]",> 20 µM
6,"CNS(=O)(=O)NCc1cc(=O)n(-c2ccc(F)cc2)cc1-c1ccn(C)n1 [compound 238, N-methyl, N′-((1-(4-fluorophenyl)-5-(1-methyl-1H-pyrazol-3-yl)-2-oxo-1,2-dihydropyridin-4-yl)methyl)sulfamide]",> 20 µM
7,"CCC(=O)Nc1cncc(-c2cccc(-c3ccn(Cc4ccccc4)n3)c2)c1 [compound 006, N-(5-(3-(1-benzyl-1H-pyrazol-3-yl)phenyl)pyridin-3-yl)propionamide]",1 to 20 µM
8,"CNS(=O)(=O)CCNc1ccc(-c2cccc(Cl)c2)cc1-c1ccn(C)n1 [compound 122, 2-((3′-chloro-3-(1-methyl-1H-pyrazol-3-yl)-[1,1′-biphenyl]-4-yl)amino)-N-methylethane-1-sulfonamide]",< 1 µM
9,"CNS(=O)(=O)CCNc1ccc(-c2ccc(C(F)(F)F)cc2)cc1-c1ccn(CCO)n1 [compound 112, 2-((3-(1-(2-hydroxyethyl)-1H-pyrazol-3-yl)-4′-(trifluoromethyl)-[1,1′-biphenyl]-4-yl)amino)-N-methylethane-1-sulfonamide]",< 1 µM
10,"CCC(=O)NCc1cc(=O)n(-c2ccc(F)cc2)cc1-c1ccn(C)n1 [compound 236, N-((1-(4-fluorophenyl)-5-(1-methyl-1H-pyrazol-3-yl)-2-oxo-1,2-dihydropyridin-4-yl)methyl)propionamide]",1 to 20 µM
11,"CNS(=O)(=O)CCNc1ccc(-c2ccc(C(F)(F)F)c(F)c2)cc1-c1ccn(C)n1 [compound 127, 2-((3′-fluoro-3-(1-methyl-1H-pyrazol-3-yl)-4′-(trifluoromethyl)-[1,1′-biphenyl]-4-yl)amino)-N-methylethane-1-sulfonamide]",< 1 µM
12,"CC(=O)N1CCC(Cn2ccc(-c3cccc(-c4ccccc4)c3)n2)CC1 [compound 031, 1-(4-((3-([1,1′-biphenyl]-3-yl)-1H-pyrazol-1-yl)methyl)piperidin-1-yl)ethan-1-one]",1 to 20 µM
13,"CCC(=O)Nc1ccc(Cn2ccc(-c3cccc(-c4ccccc4)c3)n2)cn1 [compound 039, N-(5-((3-([1,1′-biphenyl]-3-yl)-1H-pyrazol-1-yl)methyl)pyridin-2-yl)propionamide]",1 to 20 µM
14,"CNS(=O)(=O)CC(=O)Nc1ccc(-c2ccccc2)cc1-c1ccn(Cc2cccnc2)n1 [compound 082, 2-(N-methylsulfamoyl)-N-(3-(1-(pyridin-3-ylmethyl)-1H-pyrazol-3-yl)-[1,1′-biphenyl]-4-yl)acetamide]",1 to 20 µM
15,"C=CC(=O)NCc1cc(-c2ccn(C(F)F)n2)cc(-c2ccc(F)cc2)n1 [compound 218, N-((4-(1-(difluoromethyl)-1H-pyrazol-3-yl)-6-(4-fluorophenyl)pyridin-2-yl)methyl)acrylamide]",< 1 µM
16,"C=CC(=O)NCc1ncc(-c2ccc(F)cc2)cc1-c1nnn(C(F)F)n1 [compound 204, N-((3-(2-(difluoromethyl)-2H-tetrazol-5-yl)-5-(4-fluorophenyl)pyridin-2-yl)methyl)acrylamide]",< 1 µM
17,"CN(C)S(=O)(=O)CCNc1ccc(-c2ccc(F)cc2)nc1-c1ccn(C(F)F)n1 [compound 133, 2-((2-(1-(difluoromethyl)-1H-pyrazol-3-yl)-6-(4-fluorophenyl)pyridin-3-yl)amino)-N,N-dimethylethane-1-sulfonamide]",< 1 µM
